# What was measured:
# [1] = system: rats with adjuvant induced arthritis; assay: Anti-cachectic effects in an adjuvant-induced arthritis model system; assay type: in vivo, rat; details: arthritic rats, 0.1 μg/kg/day s.c.
# Text: VII) Study of Anti-Cachectic Effects in an Adjuvant-Induced Arthritis Model System
# The effectiveness of compounds of the invention in the treatment of cachexia was investigated according to Ibanez de Caceres I et al. (J Endocrinol. 2000, 165(3): 537-544) using a cachexia model system (Roubenoff R et al., Arthritis Rheum. 1997, 40(3): 534-539).
# [2] = system: young-adult male Sprague-Dawley rats; assay: Feeding behavior (food intake) of young-adult male rats; assay type: in vivo, rat (Sprague-Dawley)
# Method in brief: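 Compounds (160 μg/kg) and/or hexarelin (80 μg/kg), the latter used to stimulate feeding, given s.c. around 10.00–11.00 a.m. to trained rats (200–250 g) with free access to chow and water. Remaining food weighed hourly for 6 h; intake normalized to body weight as g per 100 g.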
# human GHS-R 1a = molecular target: T1, human GHS-R 1a (Homo sapiens, UniProt Q92847); assay: GHS-R 1a receptor-ligand binding assay (membrane preparations from transfected LLC PK-1 cells); details: displacement of 125I-His9-ghrelin (60 pM); membranes of LLC PK-1 cells transfected with human GHS-R 1a; mean of at least two independent experiments in triplicates
# T1 construct: expressed in transfected cells; host or cells: LLC PK-1 porcine renal epithelial cells (ECACC No. 86121112), isolated plasma membranes
# T1 sequence (Q92847 whole entry): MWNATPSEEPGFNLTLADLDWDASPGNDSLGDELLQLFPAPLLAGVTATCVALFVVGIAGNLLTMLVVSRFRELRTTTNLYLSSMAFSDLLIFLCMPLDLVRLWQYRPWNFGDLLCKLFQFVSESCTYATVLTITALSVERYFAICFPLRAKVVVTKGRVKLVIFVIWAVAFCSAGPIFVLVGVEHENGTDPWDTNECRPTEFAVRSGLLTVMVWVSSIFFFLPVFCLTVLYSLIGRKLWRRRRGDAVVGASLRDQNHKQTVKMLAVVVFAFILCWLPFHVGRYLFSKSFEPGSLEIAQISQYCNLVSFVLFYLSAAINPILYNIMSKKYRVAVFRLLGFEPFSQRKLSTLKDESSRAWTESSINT
# Method in brief: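 Membranes from LLC PK-1 cells expressing human GHS-R 1a incubated 60 min at 25 °C in 50 mM Tris pH 7.3, 5 mM MgCl2, 2.5 mM EDTA, bacitracin with 60 pM 125I-ghrelin and competitor; nonspecific binding with 10^-6 M ghrelin; filtration read-out.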
# [3] = system: GH concentration in the plasma of male rat pups; assay: In vivo GH concentration in the plasma of male rat pups; parameters: species or system rat (Sprague-Dawley); details: rat pup plasma, killed 15 min later
# Method: IV) Assaying In Vivo GH Concentration in the Plasma of Male Rat Pups
# GH plasma concentrations of male rat pubs were assayed to characterize the modulation effect (antagonistic or agonistic) of the compounds of the invention being GHS receptor analogue ligands.
# In principle, assaying in vivo GH concentration in rat plasma was performed according to Torsello et al. (Eur. J. Pharmacol. 1998, 360: 123-129).
# Male Sprague-Dawley rat pups (Charles River, Calco, Italy) were separated on postnatal day seven from their mothers and randomly redistributed to the dams, so that each one nurtured ten to twelve pups. On postnatal day ten, the pups were again separated from their mothers.
# The compounds to be tested were dissolved in solvent [DMSO (0.4% of total volume), distilled water (4% of total volume), brought to the final volume with physiological saline].
# One hour after separation from their mothers, the pups were given isovolumetric amounts of the compounds to be tested (160 μg/kg body weight s.c.) at time −10 min and then administered with hexarelin (80 μg/kg body weight s.c.) or solvent at time 0 min before being killed 15 min later by decapitation. Trunk blood was collected, immediately centrifuged and plasma samples were stored at −20° C. until assayed for the determination of GH concentrations.
# Plasma GH concentrations were measured using a rat growth hormone enzyme immunoassay kit (SPIbio, France, cat. no. 589601) according to the manufacturer's instructions. Values are expressed in terms of NIDDK rat-GH-RP2 standard (potency 2 IU/mg) as ng/mL of plasma
# The limit of detection calculated as the concentration producing 15% displacement of initial tracer was 0.5 ng/ml; intra-assay and inter-assay coefficient of variation are 4% (n=24) and 14% (n=9).
# In the following table 3 results obtained for selected compounds of the invention are presented.
# [4] = molecular target: T2, Motilin-Receptor 1a (MTL-R1a) (Homo sapiens, UniProt O43193); assay: Motilin receptor-ligand binding assay (human recombinant HEK-293 cells); details: 0.1 nM [125I] Motilin, read-out: MTL-R 1a IC50
# T2 construct: expressed in transfected cells; host or cells: HEK-293 cells
# T2 sequence (O43193 whole entry): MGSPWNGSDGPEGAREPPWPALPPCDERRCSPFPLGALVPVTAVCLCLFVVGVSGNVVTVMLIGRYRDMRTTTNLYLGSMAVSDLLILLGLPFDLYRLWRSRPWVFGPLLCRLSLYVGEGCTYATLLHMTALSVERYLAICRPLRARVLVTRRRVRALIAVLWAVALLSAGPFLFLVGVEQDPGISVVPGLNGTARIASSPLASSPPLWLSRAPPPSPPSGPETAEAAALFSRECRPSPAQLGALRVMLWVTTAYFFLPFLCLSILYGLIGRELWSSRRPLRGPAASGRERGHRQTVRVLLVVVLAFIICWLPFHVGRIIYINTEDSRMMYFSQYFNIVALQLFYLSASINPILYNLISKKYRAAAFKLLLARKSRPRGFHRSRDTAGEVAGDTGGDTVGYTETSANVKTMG
# Method: VI) Motilin Receptor-Ligand Binding Assay (Using Human Recombinant HEK-293 Cells)
# Motilin Receptor binding/affinity studies were performed as described by Feighner S D et al. (Science 1999, 284: 2184-2188). The assays were run under the following conditions:
# Compounds of the invention were tested in concentrations comprising 0.01 μM, 0.1 μM, 1 μM and 10 μM.
# IC50 values were determined by a non-linear, least square regression analysis using Data Analysis Toolbox (MDL Information Systems, USA).
# In the following table 5 results obtained for selected compounds of the invention are presented.
# [5] = compound 160 μg/kg s.c. + hexarelin 80 μg/kg s.c.
# [6] = compound alone, 160 μg/kg body weight s.c.
smiles,measurement,setting,value
"COc1ccc(Cn2c(CCc3ccccc3)nnc2[C@@H](Cc2c[nH]c3ccccc23)NC(=O)C2CCNCC2)cc1 [compound 44, (R)—N-(1-(4-(4-methoxybenzyl)-5-phenethyl-4H-1,2,4-triazol-3-yl)-2-(1H-indol-3-yl)ethyl)piperidine-4-carboxamide]","Body weight change, Day 3","[1]; Day 3, mean of 6 animals",−5.32 gram
same,"Body weight change, Day 6","[1]; Day 6, mean of 6 animals",2.98 gram
same,"Body weight change, Day 10","[1]; Day 10, mean of 6 animals",14.92 gram
same,"Body weight change, Day 13","[1]; Day 13, mean of 6 animals",19.08 gram
same,"Body weight change, Day 15","[1]; Day 15, mean of 6 animals",7.05 gram
same,"Body weight change, Day 17","[1]; Day 17, mean of 6 animals",1.47 gram
same,Cumulative food intake (after 2 hours),[2]; [5],1.2667 ± 0.1319 g food/100 g body weight
same,Cumulative food intake (after 6 hours),[2]; [5],1.4033 ± 0.1177 g food/100 g body weight
same,Cumulative food intake (after 2 hours),[2]; [6],0.43 ± 0.0721 g food/100 g body weight
same,Cumulative food intake (after 6 hours),[2]; [6],0.7075 ± 0.1471 g food/100 g body weight
same,IC50,human GHS-R 1a,0.6 nM
same,GH concentration,[3]; compound 160 μg/kg s.c. at -10 min + hexarelin 80 μg/kg s.c. at 0 min,100.52 ± 12.112 ng/mL
same,GH concentration,"[3]; compound alone 160 μg/kg body weight s.c. at -10 min, solvent at 0 min",87.520 ± 15.066 ng/mL
same,IC50,[4],1610 nM

# — patent US8710089B2, “Triazole derivatives as ghrelin analogue ligands of growth hormone secretagogue receptors” (Zentaris GmbH, priority 2005, dated 2014)
